Reference: patent US20130096170A1 (priority 2011, published 2013)

Experiment: clinical
Conditions: human, plasma, intravenous, full evaluable population

Cc1cccc([C@H](C)c2cnc[nH]2)c1C [dexmedetomidine]
Cmax (Table 30 key summary (mean), Dose Level 1, LD 0.25/CD 0.2 μg/kg/hr): 0.48 ng/mL | Cmax (Table 30 key summary (mean), Dose Level 2, LD 0.50/CD 0.4 μg/kg/hr): 0.848 ng/mL | Cmax (Table 30 key summary (mean), Dose Level 3, LD 1.00/CD 0.7 μg/kg/hr): 3.39 ng/mL | Cmax (Table 30 key summary (mean), Dose Level 4, LD 1.00/CD 2.00 μg/kg/hr): 3.09 ng/mL | Tmax (Tmax Mean, Dose Level 1, LD 0.25/CD 0.2 μg/kg/hr): 7.31 h | Tmax (Tmax Mean, Dose Level 2, LD 0.50/CD 0.4 μg/kg/hr): 8.8 h | Tmax (Tmax Mean, Dose Level 3, LD 1.00/CD 0.7 μg/kg/hr): 2.17 h | Tmax (Tmax Mean, Dose Level 4, LD 1.00/CD 2.00 μg/kg/hr): 6.82 h | Tmax (Tmax Median, Dose Level 1, LD 0.25/CD 0.2 μg/kg/hr): 6.04 h | Tmax (Tmax Median, Dose Level 2, LD 0.50/CD 0.4 μg/kg/hr): 5.68 h | Tmax (Tmax Median, Dose Level 3, LD 1.00/CD 0.7 μg/kg/hr): 0.367 h | Tmax (Tmax Median, Dose Level 4, LD 1.00/CD 2.00 μg/kg/hr): 5.42 h | Vd (Vd Mean, Dose Level 1, LD 0.25/CD 0.2 μg/kg/hr): 62 L | Vd (Vd Mean, Dose Level 2, LD 0.50/CD 0.4 μg/kg/hr): 50.6 L | Vd (Vd Mean, Dose Level 3, LD 1.00/CD 0.7 μg/kg/hr): 52.3 L | Vd (Vd Mean, Dose Level 4, LD 1.00/CD 2.00 μg/kg/hr): 62.2 L | Vd (Vd Median, Dose Level 2, LD 0.50/CD 0.4 μg/kg/hr): 40.7 L | Vd (Vd Median, Dose Level 3, LD 1.00/CD 0.7 μg/kg/hr): 51.3 L | Vd (Vd Median, Dose Level 4, LD 1.00/CD 2.00 μg/kg/hr): 57.8 L | Vd (Vd, Table 30 key summary (mean), Dose Level 1, LD 0.25/CD 0.2 μg/kg/hr): 62 L | Vd (Vd, Table 30 key summary (mean), Dose Level 2, LD 0.50/CD 0.4 μg/kg/hr): 50.6 L | Vd (Vd, Table 30 key summary (mean), Dose Level 3, LD 1.00/CD 0.7 μg/kg/hr): 52.3 L | Vd (Vd, Table 30 key summary (mean), Dose Level 4, LD 1.00/CD 2.00 μg/kg/hr): 62.2 L | Vd (Vss Mean, Dose Level 1, LD 0.25/CD 0.2 μg/kg/hr): 56.8 L | Vd (Vss Mean, Dose Level 3, LD 1.00/CD 0.7 μg/kg/hr): 32.8 L | Vd (Vss Mean, Dose Level 4, LD 1.00/CD 2.00 μg/kg/hr): 43.7 L | Vd (Vss Median, Dose Level 1, LD 0.25/CD 0.2 μg/kg/hr): 40.3 L | Vd (Vss Median, Dose Level 2, LD 0.50/CD 0.4 μg/kg/hr): 30.6 L | Vd (Vss Median, Dose Level 3, LD 1.00/CD 0.7 μg/kg/hr): 30.4 L | Vd (Vss Median, Dose Level 4, LD 1.00/CD 2.00 μg/kg/hr): 33.1 L | clearance (Weight-adjusted CL Mean, Dose Level 1, LD 0.25/CD 0.2 μg/kg/hr): 17.3 mL/min/kg | clearance (Weight-adjusted CL Mean, Dose Level 2, LD 0.50/CD 0.4 μg/kg/hr): 15.7 mL/min/kg | clearance (Weight-adjusted CL Mean, Dose Level 3, LD 1.00/CD 0.7 μg/kg/hr): 14 mL/min/kg | clearance (Weight-adjusted CL Mean, Dose Level 4, LD 1.00/CD 2.00 μg/kg/hr): 14.2 mL/min/kg | clearance (Weight-adjusted CL Median, Dose Level 1, LD 0.25/CD 0.2 μg/kg/hr): 19.9 mL/min/kg | clearance (Weight-adjusted CL Median, Dose Level 2, LD 0.50/CD 0.4 μg/kg/hr): 14.7 mL/min/kg | clearance (Weight-adjusted CL Median, Dose Level 3, LD 1.00/CD 0.7 μg/kg/hr): 14.7 mL/min/kg | clearance (Weight-adjusted CL Median, Dose Level 4, LD 1.00/CD 2.00 μg/kg/hr): 13.4 mL/min/kg | clearance (Weight-adjusted CL, Table 30 key summary (mean), Dose Level 1, LD 0.25/CD 0.2 μg/kg/hr): 16.7 mL/min/kg | clearance (Weight-adjusted CL, Table 30 key summary (mean), Dose Level 2, LD 0.50/CD 0.4 μg/kg/hr): 15 mL/min/kg | clearance (Weight-adjusted CL, Table 30 key summary (mean), Dose Level 3, LD 1.00/CD 0.7 μg/kg/hr): 13.3 mL/min/kg | clearance (Weight-adjusted CL, Table 30 key summary (mean), Dose Level 4, LD 1.00/CD 2.00 μg/kg/hr): 13.3 mL/min/kg | Vd (Weight-adjusted Vd Mean, Dose Level 1, LD 0.25/CD 0.2 μg/kg/hr): 2.17 L/kg | Vd (Weight-adjusted Vd Mean, Dose Level 2, LD 0.50/CD 0.4 μg/kg/hr): 2.31 L/kg | Vd (Weight-adjusted Vd Mean, Dose Level 3, LD 1.00/CD 0.7 μg/kg/hr): 2.44 L/kg | Vd (Weight-adjusted Vd Mean, Dose Level 4, LD 1.00/CD 2.00 μg/kg/hr): 2.48 L/kg | Vd (Weight-adjusted Vd Median, Dose Level 1, LD 0.25/CD 0.2 μg/kg/hr): 2.43 L/kg | Vd (Weight-adjusted Vd Median, Dose Level 2, LD 0.50/CD 0.4 μg/kg/hr): 2.49 L/kg | Vd (Weight-adjusted Vd Median, Dose Level 3, LD 1.00/CD 0.7 μg/kg/hr): 2.19 L/kg | Vd (Weight-adjusted Vd Median, Dose Level 4, LD 1.00/CD 2.00 μg/kg/hr): 2.15 L/kg | Vd (Weight-adjusted Vd, Table 30 key summary (mean), Dose Level 1, LD 0.25/CD 0.2 μg/kg/hr): 2.2 L/kg | Vd (Weight-adjusted Vd, Table 30 key summary (mean), Dose Level 2, LD 0.50/CD 0.4 μg/kg/hr): 2.3 L/kg | Vd (Weight-adjusted Vd, Table 30 key summary (mean), Dose Level 3, LD 1.00/CD 0.7 μg/kg/hr): 2.4 L/kg | Vd (Weight-adjusted Vd, Table 30 key summary (mean), Dose Level 4, LD 1.00/CD 2.00 μg/kg/hr): 2.5 L/kg | half-life (t1/2, Table 30 key summary (mean), Dose Level 1, LD 0.25/CD 0.2 μg/kg/hr): 1.5 h | half-life (t1/2, Table 30 key summary (mean), Dose Level 2, LD 0.50/CD 0.4 μg/kg/hr): 1.7 h | half-life (t1/2, Table 30 key summary (mean), Dose Level 3, LD 1.00/CD 0.7 μg/kg/hr): 2 h | half-life (t1/2, Table 30 key summary (mean), Dose Level 4, LD 1.00/CD 2.00 μg/kg/hr): 2.1 h | half-life (t1/2 Mean, Dose Level 1, LD 0.25/CD 0.2 μg/kg/hr): 1.55 h | half-life (t1/2 Mean, Dose Level 2, LD 0.50/CD 0.4 μg/kg/hr): 1.74 h | half-life (t1/2 Mean, Dose Level 3, LD 1.00/CD 0.7 μg/kg/hr): 2.04 h | half-life (t1/2 Mean, Dose Level 4, LD 1.00/CD 2.00 μg/kg/hr): 2.14 h | half-life (t1/2 Median, Dose Level 1, LD 0.25/CD 0.2 μg/kg/hr): 1.56 h | half-life (t1/2 Median, Dose Level 2, LD 0.50/CD 0.4 μg/kg/hr): 1.69 h | half-life (t1/2 Median, Dose Level 3, LD 1.00/CD 0.7 μg/kg/hr): 1.79 h | half-life (t1/2 Median, Dose Level 4, LD 1.00/CD 2.00 μg/kg/hr): 2.12 h
